target: T1, human orexin type 2 receptor (Homo sapiens, UniProt O43614); test: Measurement of orexin type 2 receptor agonist activity (calcium indicator fluorescence, CHO cells forcibly expressing human OX2 receptor); type: cell-based; conditions: compound at 3 μM; 0% = DMSO, 100% = orexin A (human) 10 nM
T1 construct: expressed in transfected cells
T1 sequence (O43614 1-444): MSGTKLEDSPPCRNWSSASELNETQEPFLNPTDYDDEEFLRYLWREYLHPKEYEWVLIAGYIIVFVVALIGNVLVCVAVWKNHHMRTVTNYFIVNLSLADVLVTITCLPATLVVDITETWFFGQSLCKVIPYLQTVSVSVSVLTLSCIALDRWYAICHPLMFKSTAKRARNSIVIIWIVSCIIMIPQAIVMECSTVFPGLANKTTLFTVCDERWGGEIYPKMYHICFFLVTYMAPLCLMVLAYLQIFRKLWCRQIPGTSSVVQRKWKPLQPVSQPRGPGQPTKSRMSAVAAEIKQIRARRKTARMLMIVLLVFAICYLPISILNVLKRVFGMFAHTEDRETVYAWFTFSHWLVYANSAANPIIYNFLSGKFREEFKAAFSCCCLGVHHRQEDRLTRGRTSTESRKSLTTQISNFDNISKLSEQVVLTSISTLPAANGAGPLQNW
Method in brief: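 Agonist response normalised between vehicle (0%) and orexin A at 10 nM final (100%), from kinetic Fluo-4 calcium signals recorded for about 2 min after compound addition. Cells: stable human OX2R CHO clone, dye-loaded 30 min at 37 °C plus 30 min at room temperature.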

Row | SMILES | OX2R agonist activity (3 μM, %) [%]
1 | CC(C)C(=O)N1CC(F)(F)[C@H](NS(C)(=O)=O)[C@@H]1Cc1cccc(-c2cccc(F)c2F)c1 [Example 131, N-[(2S,3R)-2-[(2′,3′-difluoro[1,1′-biphenyl]-3-yl)methyl]-4,4-difluoro-1-(2-methylpropanoyl)pyrrolidin-3-yl]methanesulfonamide] | 94
2 | CN(C)S(=O)(=O)N[C@@H]1[C@H](Cc2cccc(-c3ccccc3)c2F)N(C(=O)C2(O)CCC2)CC1(F)F [Example 145, N′-[(2S,3R)-4,4-difluoro-2-[(2-fluoro[1,1′-biphenyl]-3-yl)methyl]-1-(1-hydroxycyclobutane-1-carbonyl)pyrrolidin-3-yl]-N,N-dimethylsulfuric diamide] | 99
3 | CCS(=O)(=O)N[C@H]1[C@@H](F)CN(C(=O)C2CC2)[C@H]1Cc1cccc(-c2ccccc2F)c1F [Example 518, N-{(2S,3R,4S)-1-(cyclopropanecarbonyl)-2-[(2,2′-difluoro[1,1′-biphenyl]-3-yl)methyl]-4-fluoropyrrolidin-3-yl}ethanesulfonamide] | 98
4 | CCS(=O)(=O)N[C@@H]1[C@H](Cc2cccc(-c3cccc(F)c3)c2F)N(C(=O)C2(O)CCC2)CC1(F)F [Example 273, N-[(2S,3R)-2-[(2,3′-difluoro[1,1′-biphenyl]-3-yl)methyl]-4,4-difluoro-1-(1-hydroxycyclobutane-1-carbonyl)pyrrolidin-3-yl]ethanesulfonamide] | 83
5 | CS(=O)(=O)N[C@@H]1[C@H](Cc2cccc(-c3cccc(F)c3)c2F)N(C(=O)N2CCC2)CC1(F)F [Example 11, N-{(2S,3R)-1-(azetidine-1-carbonyl)-2-[(2,3′-difluoro[1,1′-biphenyl]-3-yl)methyl]-4,4-difluoropyrrolidin-3-yl}methanesulfonamide] | 85
6 | CCS(=O)(=O)N[C@@H]1[C@H](Cc2cccc(-c3cc(F)cc(Cl)c3)c2F)N(C(=O)C2CC2)CC1(F)F [Example 248, N-[(2S,3R)-2-[(3′-chloro-2,5′-difluoro[1,1′-biphenyl]-3-yl)methyl]-1-(cyclopropanecarbonyl)-4,4-difluoropyrrolidin-3-yl]ethanesulfonamide] | 90
7 | CCS(=O)(=O)N[C@H]1[C@@H](F)CN(C(=O)C2CCO2)[C@H]1Cc1cccc(-c2cccc(F)c2)c1F (stereo partly drawn) [Example 216, N-[(2S,3R,4S)-2-[(2,3′-difluoro[1,1′-biphenyl]-3-yl)methyl]-4-fluoro-1-(oxetane-2-carbonyl)pyrrolidin-3-yl]ethanesulfonamide] | 95
8 | CCS(=O)(=O)N[C@@H]1[C@H](Cc2cccc(-c3cc(F)cc(F)c3)c2F)N(C(=O)[C@H]2CCCO2)CC1(F)F [Example 454, N-{(2S,3R)-4,4-difluoro-1-[(2R)-oxolane-2-carbonyl]-2-[(2,3′,5′-trifluoro[1,1′-biphenyl]-3-yl)methyl]pyrrolidin-3-yl}ethanesulfonamide] | 84
9 | CCS(=O)(=O)N[C@@H]1[C@H](Cc2cccc(-c3cccc(C(F)F)c3)c2F)N(C(=O)[C@H]2CCCO2)CC1(F)F [Example 457, N-{(2S,3R)-2-{[3′-(difluoromethyl)-2-fluoro[1,1′-biphenyl]-3-yl]methyl}-4,4-difluoro-1-[(2R)-oxolane-2-carbonyl]pyrrolidin-3-yl}ethanesulfonamide] | 80
10 | CCS(=O)(=O)N[C@@H]1[C@H](Cc2cccc(-c3cccc(OC(F)F)c3)c2F)N(C(=O)C2CC2)CC1(F)F [Example 550, N-[(2S,3R)-1-(cyclopropanecarbonyl)-2-{[3′-(difluoromethoxy)-2-fluoro[1,1′-biphenyl]-3-yl]methyl}-4,4-difluoropyrrolidin-3-yl]ethanesulfonamide] | 93
11 | CCS(=O)(=O)N[C@@H]1[C@H](Cc2cccc(-c3cccc(F)c3)c2)N(C(=O)C(C)C)CC1(F)F [Example 97, N-[(2S,3R)-4,4-difluoro-2-[(3′-fluoro[1,1′-biphenyl]-3-yl)methyl]-1-(2-methylpropanoyl)pyrrolidin-3-yl]ethanesulfonamide] | 90
12 | CCS(=O)(=O)N[C@@H]1[C@H](Cc2cccc(-c3cccc(C)c3F)c2F)N(C(=O)N2CCC2)CC1(F)F [Example 291, N-{(2S,3R)-1-(azetidine-1-carbonyl)-2-[(2,2′-difluoro-3′-methyl[1,1′-biphenyl]-3-yl)methyl]-4,4-difluoropyrrolidin-3-yl}ethanesulfonamide] | 90
13 | Cc1cccc(-c2cccc(C[C@H]3[C@@H](NS(=O)(=O)C4CC4)C(F)(F)CN3C(=O)N(C)C)c2F)c1F [Example 521, (2S,3R)-3-[(cyclopropanesulfonyl)amino]-2-[(2,2′-difluoro-3′-methyl[1,1′-biphenyl]-3 yl)methyl]-4,4-difluoro-N,N-dimethylpyrrolidine-1-carboxamide] | 97
14 | Cc1cc(F)cc(-c2cccc(C[C@H]3[C@@H](NS(=O)(=O)C4CC4)C(F)(F)CN3C(=O)N(C)C)c2F)c1 [Example 522, (2S,3R)-3-[(cyclopropanesulfonyl)amino]-2-[(2,3′-difluoro-5′-methyl[1,1′-biphenyl]-3-yl)methyl]-4,4-difluoro-N,N-dimethylpyrrolidine-1-carboxamide] | 97
15 | CS(=O)(=O)N[C@@H]1[C@H](Cc2cccc(-c3cccc(Cl)c3F)c2F)N(C(=O)C2CCO2)CC1(F)F (stereo partly drawn) [Example 264, N-[(2S,3R)-2-[(3′-chloro-2,2′-difluoro[1,1′-biphenyl]-3-yl)methyl]-4,4-difluoro-1-(oxetane-2-carbonyl)pyrrolidin-3-yl]methanesulfonamide] | 98
16 | CCS(=O)(=O)N[C@@H]1[C@H](Cc2cccc(-c3cccc(Cl)c3)c2F)N(C(=O)C2CCO2)CC1(F)F (stereo partly drawn) [Example 268, N-[(2S,3R)-2-[(3′-chloro-2-fluoro[1,1′-biphenyl]-3-yl)methyl]-4,4-difluoro-1-(oxetane-2-carbonyl)pyrrolidin-3-yl]ethanesulfonamide] | 94
17 | O=C(N1CCC1)N1C[C@H](F)[C@H](NS(=O)(=O)C2CC2)[C@@H]1Cc1cccc(-c2cc(F)cc(F)c2)c1F [Example 544, N-{(2S,3R,4S)-1-(azetidine-1-carbonyl)-4-fluoro-2-[(2,3′,5′-trifluoro[1,1′-biphenyl]-3-yl)methyl]pyrrolidin-3-yl}cyclopropanesulfonamide] | 90
18 | CCS(=O)(=O)N[C@@H]1[C@H](Cc2cccc(-c3cccc(C)c3F)c2F)N(C(=O)C2(O)CCC2)CC1(F)F [Example 276, N-[(2S,3R)-2-[(2,2′-difluoro-3′-methyl[1,1′-biphenyl]-3-yl)methyl]-4,4-difluoro-1-(1-hydroxycyclobutane-1-carbonyl)pyrrolidin-3-yl]ethanesulfonamide] | 88
19 | CCS(=O)(=O)N[C@H]1[C@@H](F)CN(C(=O)[C@H]2CCCO2)[C@H]1Cc1cccc(-c2cccc(F)c2F)c1F [Example 415, N-{(2S,3R,4S)-4-fluoro-1-[(2R)-oxolane-2-carbonyl]-2-[(2,2′,3′-trifluoro[1,1′-biphenyl]-3-yl)methyl]pyrrolidin-3-yl}ethanesulfonamide] | 107

From patent US20230040770A1, “HETEROCYCLIC COMPOUND AND USE THEREOF” (TAKEDA PHARMACEUTICAL COMPANY LIMITED, priority 2019, published 2023)
